Key:
Dicer1f/f mice = experiment: RPE degeneration induced by subretinal AAV1-BEST1-Cre (DICER1 loss); type: in vivo; conditions: inhibitor intravitreous
Protocol: Immunolabeling. Human eyes fixed in 2-4% paraformaldehyde were prepared as eyecups, cryoprotected in 30% sucrose, embedded in optimal cutting temperature compound (Tissue-Tek OCT; Sakura Finetek), and cryosectioned into 10 μm sections. Depigmentation was achieved using 0.25% potassium permanganate and 0.1% oxalic acid. Immunohistochemical staining was performed with the rabbit antibody against NLRP3 (1:100, Sigma Aldrich) or rabbit antibody against Caspase-1 (prediluted, AbCam). Isotype IgG was substituted for the primary antibody to assess the specificity of the staining. Bound antibody was detected with biotin-conjugated secondary antibodies, followed by incubation with ABC reagent and visualized by Vector Blue (Vector Laboratories). Levamisole (Vector Laboratories) was used to block endogenous alkaline phosphatase activity. Slides were washed in PBS, counterstained with neutral red (Fisher Scientific), rinsed with deionized water, air dried, and then mounted in Vectamount (Vector Laboratories). Fluorescent labeling of human tissue was performed with the rabbit antibody against PYCARD (1:50, Clone N-15, Santa Cruz Biotechnology). Immunolabeling was visualized by fluorescently conjugated anti-rabbit secondary antibody (Invitrogen). Tissue autofluorescence was quenched by incubating the sections in 0.3% Sudan black (Fisher Scientific). […]

Caspase-1 = target: T1, Caspase-1 (Homo sapiens, UniProt P29466); experiment: Caspase-1 activation in cultured cells (western blot p20, Caspalux1 substrate cleavage); type: cell-based; conditions: human RPE cells
T1 construct: endogenous in cells; host or cells: primary human RPE cells; also THP-1 and HeLa cells
T1 sequence (P29466 120-297 limits assumed): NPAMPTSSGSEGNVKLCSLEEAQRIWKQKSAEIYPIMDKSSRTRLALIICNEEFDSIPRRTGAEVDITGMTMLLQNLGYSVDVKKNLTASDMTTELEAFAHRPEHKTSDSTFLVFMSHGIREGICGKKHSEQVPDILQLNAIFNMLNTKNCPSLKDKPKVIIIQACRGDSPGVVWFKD
T1 sequence (P29466 317-404 limits assumed): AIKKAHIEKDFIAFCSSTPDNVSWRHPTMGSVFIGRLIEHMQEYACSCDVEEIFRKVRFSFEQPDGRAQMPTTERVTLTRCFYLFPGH
Protocol: Protein abundance and activity. Protein abundance was assessed by Western blot analysis using primary antibodies recognizing Caspase-1 (1:500; Invitrogen), pIRAK1 (1:500; Thermo Scientific), pIRAK4 (1:500, Abbomax, Inc), PYCARD (1:200, Santa Cruz Biotechnology), NLRP3 (1:500, Enzo Life Sciences) and Vinculin (1:1,000; Sigma-Aldrich). Caspase-1 activity was visualized using Caspalux1 E1D2 (OncoImmunin) reagent according to the manufacturer's instructions.
Western blotting. Tissues or cells were homogenized in lysis buffer (10 mM Tris base, pH 7.4, 150 mM NaCl, 1 mM EDTA, 1 mM EGTA, 1% Triton X-100, 0.5% NP-40, protease and phosphatase inhibitor cocktail (Roche)). Protein concentrations were determined using a Bradford assay kit (Bio-Rad) with bovine serum albumin as a standard. Proteins (40-100 μg) were run on NuPAGE Bis-Tris gels (Invitrogen) and transferred to Immun-Blot PVDF membranes (Bio-Rad). Cells were scraped in hot Laemmli buffer (62.5 mM Tris base, pH 6.8, 2% SDS, 5% 2-Mercaptoethanol, 10% Glycerol, 0.01% Bromophenol Blue). Samples were boiled and run on 4-20% NuPAGE Tris-Glycine gels (Invitrogen). The transferred membranes were blocked for 1 h at RT and incubated with antibodies against human Caspase-1 (1:500; Invitrogen), mouse Caspase1 (1:500; MBL), NLRP3 (1:1000; Enzo Life Sciences), PYCARD (1:1000, RayBiotech), phospho-IRAK1 (S376) (1:500, Thermo Scientific), phospho-IRAK4 (T345) (1:500, AbboMax), DICER1 (1:2,000; Bethyl), MyD88 (1:1,000; Cell Signaling), and mouse IL-18 (1:200; MBL) at 4° C. overnight. Protein loading was assessed by immunoblotting using an anti-Vinculin antibody (1:1,000; Sigma-Aldrich). The secondary antibodies were used (1:5,000) for 1 h at RT. […]
Caspase-1 activity. […] Caspalux1E1D2 signal was quantified reading the fluorescence (excitation 552 nm, emission 580 nm) using a Synergy 4 reader (Biotek). Quantification of fluorescence from images was performed by converting images into grayscale in Adobe Photoshop CS5, and measuring the integrated density of black and white images using ImageJ software (NIH) (Bogdanovich et al., 2008).

Caspase-3 = Caspase-3 activation in the RPE of wild-type mice; type: in vivo; conditions: inhibitor intravitreous
Protocol: Drug treatments. siRNAs formulated in siRNA buffer (20 mM KCL, 0.2 mM MgCl2 in HEPES buffer at pH 7.5; Dharmacon) or phosphate buffered saline (PBS; Sigma-Aldrich); the TLR4 antagonist Ultra Pure Rhodobacter sphaeroides LPS (LPS-RS, InvivoGen), a peptide inhibitor of MyD88 homodimerization IMG-2005 (IMGENEX), control inhibitor (IMGENEX), recombinant IL-18 (Medical & Biological Laboratories), neutralizing rat antibodies against mouse IL-1β (IMGENEX), neutralizing rat antibodies against mouse IL-18 (Medical & Biological Laboratories), isotype control IgGs (R&D Systems or eBioscience as appropriate), Caspase-1 inhibitor Z-WEHD-FMK (R&D Systems), Caspase-3 inhibitor Z-DEVD-FMK (R&D Systems), Caspase control inhibitor Z-FA-FMK (R&D Systems), (2R,4R)-APDC (Enzo Life Sciences), Glipizide (Sigma-Aldrich), Glyburide (Sigma-Aldrich), and P2X7 receptor antagonist A438079 (Tocris Bioscience) were dissolved in phosphate buffered saline (PBS; Sigma-Aldrich) or dimethyl sulfoxide (DMSO; Sigma-Aldrich), and injected into the vitreous humor in a total volume of 1 μL with a 33-gauge Exmire microsyringe (Ito Corporation). […] As a control, Luc siRNA-chol (17+2 nt) was used with identical dosages.
Caspase-3 activity. The caspase-3 activity was measured using Caspase-3 Fluorimetric Assay (R&D Systems) according to the manufacturer's instruction.

MyD88 inhibitory peptide: peptide inhibitor of MyD88 homodimerization IMG-2005 (IMGENEX)
AAV1-BEST1-Cre-induced RPE degeneration (Dicer1f/f mice): blocked | Alu RNA-induced fluorescent substrate cleavage (Caspase-1 activity) (Caspase-1; Caspalux1): did not reduce | Alu RNA-induced Caspase-1 cleavage (p20 subunit) (Caspase-1; western blot): did not reduce | Alu RNA-induced Caspase-3 activation in the RPE (Caspase-3): inhibited
